Test results from patent US11059852B2, “Ergostenol glycoside derivative” (ST PHARM CO., LTD., priority 2017, dated 2021).

Tests used:
Format in all cases: cell-based
[1] = system: CCL17 expression in HaCaT cells; assay: CCL17 gene expression (RT-PCR) in HaCaT cells induced by TNF-α and/or IFN-γ; details: HaCaT cells, 2.5, 5, 10 and 20 μg/mL for one hour, then TNF-α, IFN-γ, or both, 18 hours; RNA level, FIG. 2
Protocol: (§1) 1×10^6 HaCaT cells were moved into a 6-well microplate, cultured in DMEM containing 10% (v/v) FBS for 12 hours, washed with PBS, and then treated in 2 mL of serum free media with ergostenol at each concentration of 2.5, 5, 10 and 20 μg/mL for one hour. After that, the cells were treated with inflammation-inducing molecules, i.e., TNF-α, IFN-γ, or TNF-α and IFN-γ, and then cultured for 18 hours. To identify a change in CCL17 and CCL22 expressions at an RNA level, RNAs were isolated with Trizol reagent kit (Invitrogen, Gaithersburg, Md.) according to a manufacturer's manual. A reverse transcription was performed with the isolated RNAs as a template to obtain cDNAs. A reverse transcription buffer solution (5 mM MgCl2, 1 mM dNTP, 2.5 U/μL reverse transcriptase, and 2.5 μM oligo (dT) 15 as a primer (omniscript RTkit, Qiagen)), 0.5 U of RNase inhibiter, 2.5 μM of oligo (dT) and 2.5 U of reverse transcriptase were added into 2 μg of […], and subjected to reaction at 37° C., such that the cDNAs were obtained. To quantify the obtained cDNAs, PCR was performed with the primers of a following table 1, after which the amplified DNAs were identified with 1% agarose gel.

[2] = system: CCL22 expression in HaCaT cells; assay: CCL22 gene expression (RT-PCR) in HaCaT cells induced by TNF-α and/or IFN-γ; details: HaCaT cells, 2.5, 5, 10 and 20 μg/mL for one hour, then TNF-α, IFN-γ, or both, 18 hours; RNA level, FIG. 2
Protocol: as §1

[3] = system: CCL17 expression in HaCaT cells; assay: CCL17 protein in media (ELISA) of HaCaT cells induced by TNF-α and/or IFN-γ; details: HaCaT cells, 2.5, 5, 10 and 20 μg/mL for one hour, then TNF-α, IFN-γ, or both, 18 hours, FIG. 3
Protocol: (§2) Also, to figure out an effect of ergostenol at a protein level, HaCaT cells were treated with ergostenol at a concentration of 2.5, 5, 10 and 20 μg/mL for one hour, then treated with molecules related to inflammation induction, i.e., TNF-α, IFN-γ, or TNF-α and IFN-γ, and then cultured for 18 hours. With regard to CCL17 and CCL22, the amount of proteins present in media was identified with an ELISA kit (R&D Systems, Minneapolis, Minn., USA). Captured antibodies (anti-CCL17 antibody and anti-CCL22 antibody) at 2 μg/mL were inserted into a 96-well plate in an amount of 50 μL, respectively, subjected to coating for two hours, and then subjected to blocking with PBS containing 1% BSA for one hour. Then, a collected sample was inserted into each well in an amount of 100 μL, respectively, and subjected to reaction for two hours. The cells were washed three times with PBS-T, after which 50 μL of detector antibodies (anti-CCL17 antibody and anti-CCL22 antibody) were inserted into each well at 100 ng/well, and subjected to reaction for two hours. […] The cells were fully washed with PBS-T, after which a substrate solution (TMB) was added thereto, such that absorbance thereof was measured at 450 nm.

[4] = system: CCL22 expression in HaCaT cells; assay: CCL22 protein in media (ELISA) of HaCaT cells induced by TNF-α and/or IFN-γ; details: HaCaT cells, 2.5, 5, 10 and 20 μg/mL for one hour, then TNF-α, IFN-γ, or both, 18 hours, FIG. 3
Protocol: as §2

Ergostenol
decrease: level of CCL17 gene expression [1] | level of CCL22 gene expression [2] | level of CCL17 protein expression [3] | level of CCL22 protein expression [4]
